Test results from US20030100565A1, “Method for the treatment or prevention of atopic dermatitis” (Boehringer Ingelheim International GmbH, priority 2001, published 2003).

Legend:
SP-induced scratching [1] = experiment: Effect on SP-induced scratching in guinea pigs; assay type: in vivo, Hartley guinea pigs; conditions: for effect on SP-induced scratching compared with Compounds Ia and Id: dose not stated
Procedure: Assay: Effect of NK1 Receptor Antagonist Ia, on SP-Induced Scratching in Guinea Pigs
Male Hartley guinea pigs (Japan SLC, Ltd., Shizuoka, Japan) of 4-5 weeks old weighing 275-395 g were used in the experiment. The guinea pigs were fasted more than 12 hours prior to the initiation of the experiment with free access to water. 6-8 guinea pigs were used for each group.
Prior to the recording of behaviour, the guinea pigs (one animal per cage) were kept in a cage for observation for at least 1 hour for acclimation. Compound Ia was dosed at 1 hour prior to the administration of substance P. […] SP (150 μg/body) was injected intradermally in volume of 20 μL into the rostral back (around interscapular level). Immediately after the administration of SP, the behaviour of the guinea pigs were recorded using VHS video camera for 1 hour with any persons kept out the observation room (sound proof condition). Playing back of video was served for counting the number of scratching behaviour.
The total scratching counts during 60 min of observation were analysed by one-way ANOVA and Dunnett's multiple comparison test between vehicle treatment and drug treatments; p<0.05 value was considered as significant. Scratching counts were expressed as the mean+S.E.

SP-induced scratching [2] = experiment: Effect on SP-induced scratching in mice; assay type: in vivo, ddY mice; conditions: for scratching behavior count induced by SP: 1 h before intradermal SP, FIG. 1, control 50.5±12.1, mean±S.E.; for scratching behaviour count induced by SP: another experiment; for effect on SP-induced scratching compared with Compounds Ia and Ib: mice, dose not stated
Procedure: Assay: Effect of NK1 Receptor Antagonist Ia, on SP-Induced Scratching in Mice Male ddY mice (Japan SLC, Ltd., Shizuoka, Japan) of 8-9 weeks of ages weighing 34-43 g, were used in the experiment. Mice were fasted 4 hours prior to the initiation of the experiment with free access to water. Epinastine and NK1 receptor antagonist of formulae Ia, Ib, Ic and Id (Compounds Ia to Id) were provided by Boehringer Ingelheim Pharma K.G. (Germany). SP (lot. No. 80K5 104) was supplied by Sigma Co., Ltd. (USA) and dissolved in physiological saline. Before recording of behavior, the mice (two animals per one cage) were put into an acryl cage for at least 5 hours for acclimation. […] Playing back of video served for counting scratching behavior. […] Data were analyzed by One-way ANOVA and post hoc Tukey test; p<0.05 value was considered. Data presented as the mean±S.E.

SP-induced scratching [3] = conditions: mice; reported by Inagaki et al., Eur J Pharmacol 2000; cited from earlier work

Which results are given for `CN(CCc1cc(C(F)(F)F)cc(C(F)(F)F)c1)C(=O)[C@H](c1ccccc1)N1CCN(CC2CC2)CC1` [Compound Ia]?
inhibition of scratching behaviour induced by SP (SP-induced scratching [1]; guinea pigs, higher doses of 0.1 mg/kg p.o., FIG. 5.1): significant inhibition; inhibition of scratching behaviour induced by SP (SP-induced scratching [1]; guinea pigs, lower doses of 0.03 mg/kg p.o., FIG. 5.2): tendency to inhibit; inhibition of scratching behaviour induced by SP, dose dependency (SP-induced scratching [1]; guinea pigs, p.o., 1 h before SP, FIG. 5): inhibited the scratching behaviour induced by SP dose dependently; scratching behavior count induced by SP (SP-induced scratching [2]; 30 mg/kg p.o.): 21.1±6.1 beats/60 min; scratching behaviour count induced by SP (SP-induced scratching [2]; 30 mg/kg p.o., FIG. 2a, control 59.0±6.0/60 min): 29.9±6.6 beats/60 min; dose dependency of effect on SP-induced scratching behavior (SP-induced scratching [2]; 10 and 30 mg/kg p.o., FIG. 3, vehicle 51.0±12.9 beats/60 min): inhibited the scratching induced by SP, and the effect was dose dependent; overall effect on scratching behaviour (conclusion) (SP-induced scratching [2]; ddY mice, effect similar to epinastine): apparent inhibitory effect

Which results are given for `CN(CCc1cc(C(F)(F)F)cc(C(F)(F)F)c1)C(=O)[C@H](c1ccccc1)N1CCC(NC(CO)CO)CC1` [Compound Id, (S)-N-[2-(3,5-Bis-trifluormethyl-phenyl)-ethyl]-2-[4-(2-hydroxy-1-hydroxymethyl-ethylamino)-piperidin-1-yl]-N-methyl-2-phenylacetamid]?
inhibition of scratching behaviour induced by substance P (SP-induced scratching [1]; guinea pigs, 0.3, 1.0 and 3.0 mg/kg p.o., FIG. 6): inhibited; effect on SP-induced scratching compared with Compounds Ia and Ib (SP-induced scratching [2]): Comparable results

With `CN(CCc1cc(C(F)(F)F)cc(C(F)(F)F)c1)C(=O)[C@H](c1ccccc1)N1CCC(N(C)CCCO)CC1` [Ic, (S)-N-[2-(3,5-Bis-trifluormethyl-phenyl)-ethyl]-2-{4-[(3-hydroxy-propyl)-methyl-amino]-piperidin-1-yl}-N-methyl-2-phenyl-acetamide] as the compound, how does the “effect on SP-induced scratching compared with Compounds Ia and Id” value (SP-induced scratching [1]; guinea pigs) read?
The value was “Comparable results”.

And the “effect on SP-induced scratching compared with Compounds Ia and Ib” value (SP-induced scratching [2])?
Its value is “Comparable results”.

With `NC1=NCC2c3ccccc3Cc3ccccc3N12` (stereo not shown) [epinastine, reference compound] as the compound, how does the “effect on SP-induced scratching” value (SP-induced scratching [3]) read?
The value was “significant effect”.

And the “scratching behavior count induced by SP” value (SP-induced scratching [2]; 10 mg/kg p.o.)?
The value was 20.0±8.4 beats/60 min.

What about the “scratching behaviour count induced by SP” value (SP-induced scratching [2]; 10 mg/kg p.o., FIG. 2b, control 51.6±7.8/60 min) of the same compound?
The value was 33.7±4.0 beats/60 min.

Which results are given for “(S)-N-[2-(3,5-Bis-trifluormethyl-phenyl)-ethyl]-2-{4-[cyclopropylmethyl-(3-hydroxy-propyl) -amino]-piperidin-1-yl}-N-methyl-2-phenyl-acetamid [Compound Ib]”?
effect on SP-induced scratching compared with Compounds Ia and Id (SP-induced scratching [1]; guinea pigs): Comparable results; inhibition of scratching behaviour induced by substance P (SP-induced scratching [2]; 30 mg/kg p.o., FIG. 4): inhibited
